These results are taken from ChEMBL document CHEMBL3868622, “Development of 1-aryl-3-furanyl/thienyl-imidazopyridine templates for inhibitors against hypoxia inducible factor (HIF)-1 transcriptional activity” (Bioorg Med Chem Lett, 2016).

SMILES strings stand for the structures.

This assay deals with Hypoxia inducible factors; HIF-1-alpha, HIF-2-alpha (Homo sapiens, UniProt Q16665+Q99814). Briefly: Inhibition of hypoxia-induced HIF1 transcriptional activity in human HeLa cells measured after 12 hrs by luciferase reporter gene assay. Format: cell-based.
`OCc1ccc(-c2nc(Cc3ccccc3)c3ccccn23)o1` displayed an IC50 of 56 µM. The compound `OCc1ccc(-c2nc(-c3ccccc3CO)c3ccccn23)o1` displayed an IC50 of 6.5 µM. With `OCc1ccc(-c2nc(-c3ccccc3CO)c3ccccn23)s1` the figure was 9.4 µM; with `OCc1ccc(-c2nc(-c3cc(C(F)(F)F)cc(C(F)(F)F)c3)c3ccccn23)o1`, 25 µM; with `OCc1ccc(-c2nc(-c3ccc(C(F)(F)F)cc3)c3ccccn23)o1`, 17 µM.

In the case of `COc1ccc(-c2nc(-c3ccc(CO)o3)n3ccccc23)cc1`, the IC50 is 61 µM. Compared with the last compound, the IC50 is about 3.6-fold higher. With `N#Cc1ccc(-c2nc(-c3ccc(CO)o3)n3ccccc23)cc1` the figure was 7.4 µM.

In turn, `OCc1ccc(-c2nc(-c3ccccc3)c3ccccn23)s1` registered an IC50 of 3.7 µM. This IC50 lies about 2-fold lower than the previous one. The compound `OCc1ccc(-c2nc(-c3ccncc3)c3ccccn23)s1` yielded a concentration for half-maximal inhibition (IC50) of 9.1 µM. With `COc1ccccc1-c1nc(-c2ccc(CO)o2)n2ccccc12` the figure was 75 µM.

`Cc1ccc(-c2nc(-c3ccc(CO)o3)n3ccccc23)cc1` came in with a 50% inhibitory concentration (IC50) of 39 µM. With `OCc1ccc(-c2nc(-c3ccccc3)c3ccccn23)o1` the figure was 70 µM.
